Target: T1, 3-oxoacyl-[acyl-carrier-protein] synthase 3 (Mycobacterium tuberculosis (strain ATCC 25618 / H37Rv), UniProt P9WNG3)
T1 sequence (P9WNG3 whole entry): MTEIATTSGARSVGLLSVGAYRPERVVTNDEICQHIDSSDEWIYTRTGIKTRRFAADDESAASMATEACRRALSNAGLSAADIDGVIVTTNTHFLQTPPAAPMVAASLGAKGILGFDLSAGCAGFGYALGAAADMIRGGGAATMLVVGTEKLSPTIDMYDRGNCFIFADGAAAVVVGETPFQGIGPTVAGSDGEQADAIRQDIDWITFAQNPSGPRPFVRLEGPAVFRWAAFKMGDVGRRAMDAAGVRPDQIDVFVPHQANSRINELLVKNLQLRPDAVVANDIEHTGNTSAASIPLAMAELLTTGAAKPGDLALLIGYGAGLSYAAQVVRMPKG
Test: 3D-QSAR
Method: The biological activities of the compounds were evaluated in the same laboratory. Biological activities measured as IC50 were converted to pIC50 (−log(IC50)) for use in the 3D-QSAR study.

SMILES	IC50 [µM]
C#CC1(C)SC(=O)C(C)=C1O (centres undefined) [mtFabH inhibitor, 2]	100
CC1=C(O)C(C)(Cc2cccc(C(=O)c3ccccc3)c2)SC1=O (centres undefined) [mtFabH inhibitor, 40]	283
CC(=O)c1ccc(C#CC2(C)SC(=O)C(C)=C2O)cc1O (centres undefined) [mtFabH inhibitor, 4]	7
CCCCCCCCCCCCCC1(C)SC(=O)C(C)=C1O (centres undefined) [mtFabH inhibitor, 26]	80
CC1=C(O)C(C)(Cc2ccc(C(F)(F)F)cc2)SC1=O (centres undefined) [mtFabH inhibitor, 27]	100
CC1=C(O)C(C)(Cc2ccccc2)SC1=O (centres undefined) [mtFabH inhibitor, 9]	250
COC(=O)c1ccc(CC#CC2(C)SC(=O)C(C)=C2O)cc1 (centres undefined) [mtFabH inhibitor, 5]	74
CC(=O)Nc1cccc(-c2ccc(CC3(C)SC(=O)C(C)=C3O)cc2)c1 (centres undefined) [mtFabH inhibitor, 25]	119
COc1ccc(C2(C)SC(=O)C(C)=C2O)cc1 (centres undefined) [mtFabH inhibitor, 13]	500
CC(=O)c1ccc(C#CC2(C)SC(=O)C(C)=C2O)cc1 (centres undefined) [mtFabH inhibitor, 3]	4
COc1ccc(CC2(C)SC(=O)C(C)=C2O)cc1 (centres undefined) [mtFabH inhibitor, 12]	155
CC1=C(O)C(C)(C#CCc2ccc([N+](=O)[O-])cc2)SC1=O (centres undefined) [mtFabH inhibitor, 6]	34
CC1=C(O)C(C)(C#Cc2ccccc2C#N)SC1=O (centres undefined) [mtFabH inhibitor, 8]	48
CC1=C(O)C(C)(C#CCc2ccc(C#N)cc2)SC1=O (centres undefined) [mtFabH inhibitor, 7]	7

Reference: BindingDB's records for doi:10.3109/14756360903049059 (China Pharmaceutical University, 2010)
